According to patent US12673926B2, “Tetrazine compounds for in vivo imaging” (KØBENHAVNS UNIVERSITET, priority 2018, dated 2026):

Experiments:
[1] = Rate constant measurements (stopped-flow, pseudo-first order); settings: at 25° C.
Experimental: Based on these encouraging results, a study was performed to investigate whether the identified labeling conditions could be applied to Tzs that are more reactive. In this respect, Tz's with stepwise increased reactivity have been tested. […] Synthesis of respective reference compounds and precursors was completed in the same manner as discussed before. Respective second-order rate constants were determined via stopped-flow measurements. […] Radiolabeling was studied using the best aliquot conditions identified in our previous experiments. RCC for [^18F]7, [18F]8 and [^18F]9 were 35%, 30%, and 33%, respectively.
[…] Measurements were performed using a SX20 stopped flow photometer (Applied Photophysics, UK) equipped with a 360 nm LED light source and a photomultiplier type R374 in combination with a 400 nm longpass filter as detector.

[2] = TCO click ability; settings: TCO-KSMO in PBS, TLC
Experimental: To a solution of TCO-KSMO (the polymer) 500 μL (1 mg/mL) PBS was added 100 μL of the formulated tetrazine.
In given time intervals, 2 μL of the solution was withdrawn and quenched with 20 μL of a 3 mg/mL bispyridine-tetrazine solution. TLC (EtOAc) determined the fraction of tetrazines reacted to the TCO. (tetrazine; front, 1,4 adduct; baseline)

[3] = Pretargeted PET/CT imaging with TCO-BP pretreatment; assay type: in vivo, Balb/c mice; settings: BP-TCO pretreated mice vs controls; i.v.; 60 min dynamic PET
Experimental: All animal studied were approved by the Danish Animal Welfare Council, ministry of Justice. Five weeks old female Balb/c mice (Charles River) were acclimatized for one week with access to water and chow ad libitum. Trans-cyclooctene functionalized bisphosphonates (TCO-BP's) (100 μg. 100 μl PBS) were injected i.v. (n=2), and 1 hour later animals were administered i.v. with [^18F]9 (ca 4MBq) via the tail vein.
The animals were scanned on a dedicated small animal PET/CT scanner (Siemens) during which they were kept anesthetized by breathing sevoflurane and their temperature maintained by heating pad. Immediately after injection of [^18F]9, the animals were moved to a small animal PET/CT scanner and a 60 min dynamic PET acquisition (energy window of 350-650 KeV and a time resolution of 6 ns) was performed followed by a CT scan (360 projections, 65 kV, 500 ρA and 400 ms). Sinograms from PET scans were framed and reconstructed using a 3-dimensional maximum a posteriori algorithm with CT-based attenuation correction. PET and CT images were co-registered and analysed using Inveon software (Siemens). The mean percentage of injected dose per grams (% ID/g) in different tissues was extracted by manually creating regions of interest on fused PET/CT images.
The bioorthogonal chemistry employed is illustrated in FIG. 1. […]

[4] = Blood stability (TLC data); assay type: in vitro ADME; settings: mice whole blood, 37° C.
Experimental: (§1) Blood stability was tested by mixing 250 μL mice whole blood with 250 μL of the formulated Tz, the mixture was heated and shaken at 37° C. At given time points 1, 2, 3, 5, 10, 20, 60 and 180 min, 20 μL were withdrawn and cooled to 0° C. At the same time points, 20 μL were added to a 20 μL of a solution of 1 mg/mL KSMO (TCO-Polymer) in PBS and left at RT for 1 h.
(§2) The mixtures were then centrifuged at 4200 rpm for 3 min, before ACN (40 μL) was added and centrifuged again for 3 min at 4200 rpm. The supernatant was withdrawn and analyzed with TLC and/or HPLC.

[5] = TCO click ability after incubation in blood; design: species or system mice; settings: KSMO 1 h RT
Experimental: as §1, §2

[6] = Blood stability (TLC data); assay type: in vitro ADME; settings: mice whole blood, 37° C., 0 min
[7] = after 0 min in mice whole blood at 37° C.
[8] = after 1 min in mice whole blood at 37° C.
[9] = after 2 min in mice whole blood at 37° C.
[10] = after 3 min in mice whole blood at 37° C.
[11] = after 5 min in mice whole blood at 37° C.
[12] = after 10 min in mice whole blood at 37° C.
[13] = after 20 min in mice whole blood at 37° C.
[14] = after 60 min in mice whole blood at 37° C.
[15] = after 180 min in mice whole blood at 37° C.

| Stability ([4]; 1 min) [%] | Stability ([4]; 2 min) [%] | Stability ([4]; 3 min) [%] | Stability ([4]; 5 min) [%] | Stability ([4]; 10 min) [%] | Stability ([4]; 20 min) [%] | Stability ([4]; 60 min) [%] | Stability ([4]; 180 min) [%] | Structure (SMILES) | Second-order rate constant k2 [1] [M⁻¹ s⁻¹] | fraction of tetrazines reacted to the TCO ([2]; 30 sec) [%] | fraction of tetrazines reacted to the TCO ([2]; 1 min) [%] | fraction of tetrazines reacted to the TCO ([2]; 2 min) [%] | fraction of tetrazines reacted to the TCO ([2]; 3 min) [%] | fraction of tetrazines reacted to the TCO ([2]; 5 min) [%] | TCO click ability [5, 7] [%] | TCO click ability [5, 8] [%] | TCO click ability [5, 9] [%] | TCO click ability [5, 10] [%] | TCO click ability [5, 11] [%] | TCO click ability [5, 12] [%] | also measured |
| --- | --- | --- | --- | --- | --- | --- | --- | --- | --- | --- | --- | --- | --- | --- | --- | --- | --- | --- | --- | --- | --- |
| – | – | – | – | – | – | – | – | [18F]c1cccc(-c2nncnn2)c1 [[^18F]9] | 222 | 100 | 100 | 100 | 100 | – | – | – | – | – | – | – | fraction of tetrazines reacted to the TCO ([2]; 15 sec): 100%; PET uptake in bones (knee), the target region of BP-TCOs, compared to controls [3]: higher uptake; PET uptake in control region (the heart), treated vs non-treated mice [3]: no differences could be detected |
| 72 | 85 | 89 | 88 | 90 | 89 | 88 | 82 | [18F]c1ccc(-c2nncnn2)cc1 [[^18F]8] | 159 | – | 100 | 100 | 100 | 100 | 100 | 100 | 100 | 100 | 100 | 100 | TCO click ability [5, 13]: 100%; TCO click ability [5, 14]: 100%; TCO click ability [5, 15]: 100%; Stability [6]: 90% |
| – | – | – | – | – | – | – | – | Cc1nnc(-c2ccc([18F])cc2)nn1 [[^18F]6] | 2.25 | 100 | 100 | 100 | 100 | 100 | – | – | – | – | – | – | – |
| 95 | 96 | 95 | 95 | 96 | 96 | 96 | 77 | Cc1nnc(-c2cccc([18F])c2)nn1 [[^18F]7] | – | 100 | 100 | 100 | 100 | 100 | 100 | 100 | 100 | 100 | 100 | 100 | TCO click ability [5, 13]: 100%; TCO click ability [5, 14]: 100%; TCO click ability [5, 15]: 100%; Stability [6]: 94% |
